Results as given in patent US9156824B2, “CDC7 inhibitors” (Eli Lilly and Company, priority 2013, dated 2015).
Read-outs that look alike come from different tables or passages of the source.

Assays:
[1] = system: phosphorylated MCM2 at Serine 53 (pMCM2-S53) in H1299 cells; experiment: Acumen imaging assay for detection of phosphorylated MCM2 in H1299 cells; assay type: cell-based; conditions: 4 hours treatment, read-out: IC50, inhibition of pMCM2-S53
Protocol: The Acumen® eX3 is used to determine the effect of compounds on the formation of endogenous phosphorylated MCM2 at Serine 53 (pMCM2-S53). Phosphorylation of MCM2 by CDC7 is determined using specific anti-pMCM2-S53 antibody and quantified with fluorescent tagged secondary antibodies by Acumen® eX3 to monitor CDC7 activity in cells. Phosphorylation of MCM2 at Serine 53 is known to be correlated to CDC7 inhibition.
H1299 cells (ATCC #CRL-5803) are maintained in RPMI-1640 (Hyclone SH30809.01) growth medium supplemented with 10% FBS. Cells are harvested using standard cell culture procedures and then counted using Vi-Cell XR Cell Viability Analyzer (Beckman Counter). 3000-6000 H1299 cells in 100 μL of growth medium are plated into each well of Biocoat Poly-D-Lysine 96-well black/clear plate with flat bottom BioCoat™ Multiwell (Becton Dickinson) cell culture plates 356640 and incubated overnight at 37° C., 5% CO2.
Cells are treated with the test compound (50 μL/well) diluted in medium containing 0.6% DMSO and incubated for 4 hours at 37° C. To each well is added 7.4% formaldehyde (150 μL) diluted with PBS from 37% formaldehyde stock and the plates are incubated at room temperature for 30 minutes. Formaldehyde is removed and cold methanol (100 μL) is added. The plates are incubated for 20 minutes at 4° C. to permeabilize the cells. Plates are washed 3× with 100 μL/well of PBS. […] The plates are sealed with black seal and are read on the Acumen® eX3 (TTP LABTECH) using optical filter 500-530 nanometer and 575-640 nanometer for Alexa Fluor 488 and propidium iodide, respectively. The number of pMCM2-S53 positive cells is normalized to total cells for each well and are calculated as percent inhibition relative to on-plate controls. […]

CDC7/DBF4 = target: T1, CDC7/DBF4 (Homo sapiens, UniProt O00311); experiment: CDC7/DBF4 in vitro enzyme assay (Transcreener Kinase ADP-FP); assay type: biochemical; conditions: ATP 5 μM, MCM2 400 nM, 60 minutes, read-out: IC50 against CDC7/DBF4 kinase
T1 construct: host or cells: insect cells
T1 sequence (O00311 whole entry): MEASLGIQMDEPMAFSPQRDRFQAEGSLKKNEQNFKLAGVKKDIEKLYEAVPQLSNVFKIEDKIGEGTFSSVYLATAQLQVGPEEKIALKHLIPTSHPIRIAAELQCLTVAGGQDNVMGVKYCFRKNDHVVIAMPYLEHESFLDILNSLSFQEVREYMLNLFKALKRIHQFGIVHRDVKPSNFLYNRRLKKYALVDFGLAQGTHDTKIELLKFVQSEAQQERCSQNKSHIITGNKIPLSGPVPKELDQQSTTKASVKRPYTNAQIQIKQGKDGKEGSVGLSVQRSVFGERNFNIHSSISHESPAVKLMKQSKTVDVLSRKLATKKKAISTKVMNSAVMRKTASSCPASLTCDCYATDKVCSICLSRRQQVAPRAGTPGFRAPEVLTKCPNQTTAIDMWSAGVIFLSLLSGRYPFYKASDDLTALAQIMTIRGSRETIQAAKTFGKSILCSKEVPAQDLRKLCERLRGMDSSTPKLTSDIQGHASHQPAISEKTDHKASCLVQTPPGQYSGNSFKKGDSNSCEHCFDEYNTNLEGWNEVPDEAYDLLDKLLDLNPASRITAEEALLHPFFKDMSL
T1 sequence (Q9UBU7 whole entry partner): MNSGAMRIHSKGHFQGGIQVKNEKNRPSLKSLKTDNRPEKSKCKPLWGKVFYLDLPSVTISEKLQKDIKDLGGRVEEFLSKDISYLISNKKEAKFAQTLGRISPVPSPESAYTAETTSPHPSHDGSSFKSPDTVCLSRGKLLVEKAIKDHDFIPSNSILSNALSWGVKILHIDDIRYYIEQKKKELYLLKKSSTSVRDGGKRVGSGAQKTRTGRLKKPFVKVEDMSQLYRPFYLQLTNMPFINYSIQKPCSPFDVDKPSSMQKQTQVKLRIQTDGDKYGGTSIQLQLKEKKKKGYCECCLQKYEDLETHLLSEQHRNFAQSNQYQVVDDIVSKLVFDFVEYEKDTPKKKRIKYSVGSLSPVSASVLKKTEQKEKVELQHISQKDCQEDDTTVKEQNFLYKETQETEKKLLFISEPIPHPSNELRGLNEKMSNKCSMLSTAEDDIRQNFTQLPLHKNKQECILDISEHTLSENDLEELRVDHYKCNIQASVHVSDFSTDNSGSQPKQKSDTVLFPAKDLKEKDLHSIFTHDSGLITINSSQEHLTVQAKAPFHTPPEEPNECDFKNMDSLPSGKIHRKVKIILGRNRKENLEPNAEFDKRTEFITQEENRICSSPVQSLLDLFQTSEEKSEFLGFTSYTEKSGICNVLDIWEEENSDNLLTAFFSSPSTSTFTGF
Protocol: The Transcreener™ Kinase ADP-FP assay is used to determine compound IC50 values against CDC7/DBF4 kinase. The Kinase ADP-FP assay assesses the activity of CDC7/DBF4 in the presence of compound inhibitors by measuring the concentration of ADP formed in a kinase reaction. The kinase reaction is performed using a 25 microliter reaction volume in 96 well assay plate. For the ADP-FP assay, the reagents are added to obtain the final reaction conditions of HEPES (25 mM) pH 7.5, 0.03% Triton® X-100, magnesium chloride (10 mM), DTT (1 mM), MCM2 (400 nM) (Amino Acid 1-209, a physiological substrate of CDC7/DBF4), spermine (4 mM), CDC7/DBF4 (2,640 ng/mL) (recombinant human CDC7/DBF4 expressed in insect cells), 4% dimethyl sulfoxide and serial dilutions of compound (diluted 1:3 from 20,000 nM to 1 nM). Enzyme and substrate is added to compound followed by ATP to 5 μM to start the reaction. The plates are incubated at room temperature for 60 minutes.
For the ADP-FP format add 25 microliters of a quench detection reagent containing HEPES (52 mM) pH 7.5, EDTA (20 mM), sodium chloride (0.4 M), polyoxyethyleneglycol dodecyl ether (0.02%) (BRIJ-35™), anti-ADP antibody (10 μg/mL), and ADP (4 nM) Transcreener® ADP Alexa Fluor® 633 tracer to quench the reaction. The plates are incubated for 1 hour, and then read in a Wallac EnVision™ 2104 Multilabel Reader (PerkinElmer) in Fluorescence Polarization mode using polarizing filters of Ex620nm and Em688nm wavelength. Millipolarization (mP) raw data is converted to micromolar ADP using a prepared ADP/ATP standard curve starting at 5 μM ADP 1:1 serial dilution in reaction buffer to 0.0025 μM ADP. The IC50 value for each compound is derived using percent inhibition data calculated from the μM ADP reaction data relative to on-plate controls (DMSO versus 100 mM EDTA inhibited enzyme controls). The percent inhibition and ten-point compound concentration data is then fitted to a four-parameter logistic equation.

[2] = system: pMCM2-S40/41 in Colo-205 xenograft tumors; experiment: CDC7 in vivo target inhibition (IVTI) on pMCM2-S40/41 with Colo-205 xenograft tumor model; parameters: species or system mice; conditions: 4 hours following an oral dose
Protocol: Human colo-205 colorectal cancer cells (ATCC#CCL-222) are maintained in RPMI 1640 medium containing 10% FBS. Log phase growing cells are harvested, washed, and resuspended in a 1:1 mixture of serum free medium and Matrigel™ (Becton Dickinson). They are injected subcutaneously at 5×10^6 cells/animal/site in the rear flank as subcutaneous tumor xenograft models in balb/c (nu/nu) female mice (6-8 weeks with body weight of 20 to 25 gram/mouse). Animals are randomized at the mean tumor volume of 150 to 250 mm^3 mice, (v=1×w×0.536 where 1=larger of measured diameter and w=smaller of perpendicular diameter). Compound is administered by P.O. in a standard 1% HEC w/v, P80 0.25% v/v, Antifoam 1510-US 0.05% v/v formulation. […] Protein concentration from tumor lysates is determined by BCA assay (Thermo Scientific) and 5 to 10 μg of protein is separated by standard SDS-PAGE (BioRad Criterion™ gel) or (Invitrogen ePage™ gel). […] Levels of pMCM2-S40/41 are determined and quantified by either Licor or FUJI imagers and normalized to the total GAPDH level. The percent change inhibition of pMCM2-S40/41 band intensity is calculated using the average intensity of vehicle treated control tumors normalized to the GAPDH as the maximum signal. […]

[3] = system: panel of 114 cancer cell lines of colorectal, breast, lung, and blood (leukemia) origin; experiment: In vitro antiproliferative assay (cell number counting); assay type: cell-based; conditions: for Number of Cell Lines that Die Rapidly: within 2 doubling times
Protocol: In vitro anti-proliferative activity of Example 2 is determined by cell number counting assays against a panel of 114 cancer cell lines of colorectal, breast, lung, and blood (leukemia) origin obtained from ATCC, HSRRB, RIKEN or ECACC. The cells are cultured and maintained in media per supplier's instructions. Cell doubling time of each cell line is determined and all cell lines are free of mycoplasma contamination. Cells are cultured overnight in 96-well plates before compound addition for anti-proliferative activity assays. Optimal cell seeding density is carefully evaluated for each cell lines by seeding the cell culture with 4 different cell densities in 100 μL media and taking into consideration of their doubling time and cell sizes. The seeding density that gave about 90% confluence at end of two doubling times is then selected for compound testing. Staurosporine is used with 1:3 dilution as a reference. Example 2 is prepared as a 4 mM DMSO stock and diluted in culture media in a 1:2 ratio. 50 μL of the media containing the compound is added to each well of the overnight 96-well culture to produce the desired final concentrations of 20, 10, 5, 2.5, 1.25, 0.625, 0.312, 0.156, 0.078 μM and DMSO control. Each treatment concentration has duplicate wells. The cells are further cultured for two doubling times in the presence of the compound. At end of treatment time, cells are first examined under a microscope for morphological changes, such as cell death or apparent cell size increases. Cells in each duplicate well are collected separately. Adherent cells are harvested by tripsinization first. Harvested cells are re-suspended in growth media and are counted using a cell counter.

Compound	IC50 [1] [nM]	IC50 (CDC7/DBF4) [nM]	TEC70 (plasma concentration for 70% inhibition of pMCM2 normalized to GAPDH) [2] [μM]	TED70 (dose for 70% inhibition of pMCM2 normalized to GAPDH) [2] [mg/kg]	IC50 ([1]; Homo sapiens, NCI-H1299, 4 h) [nM]	Number of Cell Lines that Die Rapidly ([3]; Breast, of 17 cell lines)	Number of Cell Lines that Die Rapidly ([3]; Colorectal, of 29 cell lines)	Number of Cell Lines that Die Rapidly ([3]; Leukemia, of 23 cell lines)	Number of Cell Lines that Die Rapidly ([3]; Lung, of 39 cell lines)	Number of Cell Lines that Die Rapidly ([3]; Others, of 6 cell lines)	Number of Cell Lines that Die Rapidly ([3]; Total, of 114 cell lines)	IC50 ([3]; majority of the 114 cancer cell lines tested, read-out: anti-proliferative activity, pharmacologically relevant concentrations) [nM]	cancer cell lines showing particular sensitivity (massive cell death) ([3]; share of the 114 cell lines, within 2 doubling time treatment periods)
CC1(c2ncncc2F)NC(=O)c2cc(-c3cn[nH]c3)ccc21 (single isomer, unassigned) [Example 3, 3-(5-Fluoropyrimidin-4-yl)-3-methyl-6-(1H-pyrazol-4-yl)isoindolin-1-one]	290	4.5	1.8	2.6	–	–	–	–	–	–	–	–	–
CC1(c2ncncc2F)NC(=O)c2cc(-c3cn[nH]c3)ccc21 (single isomer, unassigned; isomer 2) [Example 2, 3-(5-Fluoropyrimidin-4-yl)-3-methyl-6-(1H-pyrazol-4-yl)isoindolin-1-one, Isomer 2]	–	3.7	–	–	261	0	4	5	2	1	12	< 8000	about 10%
